Measurements taken from US20230150997A1, “EIF4E INHIBITORS AND USES THEREOF” (PIC Therapeutics, Inc., priority 2021, published 2023).
pIC50: −log10 of the molar value.

Molecular target: T1, Human eIF4E (Homo sapiens, UniProt P06730)
T1 construct: Human eIF4E (aa 28-217) with a C-terminal His-tag; made in house
Assay: Human eIF4E/4G2 binding assay (TR-FRET)
Conditions: purified human eIF4E (aa 28-217), biotin labeled 4G2 peptide, 4 hours preincubation at room temperature
Protocol: Example 3. Compound Testing in Human eIF4E/4G2 Binding Assay
Human eIF4E (aa 28-217) with a C-terminal His-tag was expressed in E. coli in inclusion bodies. The protein was solubilized with 8 M urea and purified under denaturing conditions using nickel-charged HisTrap HP columns (GE Healthcare). The purified protein was then refolded by diluting in 20 mM Hepes pH 7.0, 0.5 M NaCl, 1 mM DTT, 1 mM EDTA, 0.5 M arginine plus 6 M urea, and then dialyzing overnight into the same buffer without the urea. The protein was further dialyzed into 20 mM Hepes, pH 6.5, 50 mM NaCl, 1 mM EDTA, 1 mM DTT, and concentrated using Hitrap SP sepharose FF columns (GE Healthcare). The concentrated protein was dialyzed into 20 mM Hepes, pH 7.0, 0.5 M NaCl, 5 mM DTT and 10% glycerol, and stored at -80° C. until use.
Test compounds (3.43 mM stock in DMSO) were diluted 2-fold in series in DMSO (10 concentration points). Compound solutions (1.2 µl/well) were added into black 384-well polypropylene microplates (Matrix, Thermal Scientific). Twenty-two microliters per well of Assay Buffer (50 mM NaPi, pH 6.5, 50 mM KCl, 1 mM DTT and 0.5 mg/ml gamma globulin) and eight microliters per well of 82.5 nM purified eIF4E in Assay Buffer were added. The samples were incubated at room temperature (20-23° C.) for 4 hours. Biotin labeled 4G2 peptide (Ac-Lys-Gln-Tyr-Asp-Arg-Glu-Phe-Leu-Leu-Asp-Phe-Gln-Phe-Met-Pro-Lys(Aha-Bio)-NH2, 1.75 µM stock in DMSO) was diluted to 0.14 µM in Assay Buffer (without DTT) and 5 µl/well was added. The samples were incubated at room temperature for 20 min. Five microliters per well of 6.4 nM Eu-streptavidin (Eu-SA, Perkin Elmer) and 80 nM Allophycocyanin (APC)-anti His antibody (Columbia Biosciences) in Assay Buffer (without DTT) were then added and the samples were incubated at room temperature for 20 min.
Assay signals were monitored by reading excitation at 340 nm and emission fluorescence at 615 nm and 665 nm on an Envision reader (Perkin Elmer). Normalized TR-FRET (time-resolved fluorescence resonance energy transfer) assay signal (Rn) was calculated by the formula: Rn = [(A-Ba-C x D)/(D-Bd)] x (Dc- Bd) • Where A is the fluorescence intensity of the sample at 665 nm, • D is the fluorescence intensity of the sample at 615 nm, • Ba and Bd are plate backgrounds at 665 nm and 615 nm, respectively, • Dc is the fluorescence intensity of 0.78 nM Eu-SA in the assay buffer at 615 nm • The cross-talk factor (C) is determined by the following formula: • C = (Ac- Ba)/(Dc-Bd) • Where Ac is the fluorescence intensity of 0.78 nM Eu-SA in the assay buffer at 665 nm.
IC50 values were calculated using xLFit program (IDBS). Table 2 below lists […] of some compounds, wherein A represents IC50 ≤ 0.5 µM; B represents 0.5 uM < IC50 ≤ 1 µM; and C represents IC50 > 1 µM.

T1 sequence (P06730 28-217): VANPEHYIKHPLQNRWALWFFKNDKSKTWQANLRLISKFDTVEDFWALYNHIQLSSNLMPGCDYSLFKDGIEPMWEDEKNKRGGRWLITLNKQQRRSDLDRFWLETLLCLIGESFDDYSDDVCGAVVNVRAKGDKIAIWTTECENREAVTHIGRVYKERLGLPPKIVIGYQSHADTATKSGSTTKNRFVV

Compound	pIC50
COCCOc1ccc(-c2nc(Nc3ncc(-c4cc(C)cs4)cc3C(=O)O)sc2CC(C)C)cc1 [1-35]	≥ 6.30
Cc1csc(-c2cnc(Nc3nc(-c4ccc(OC(F)F)cc4)c(CC(C)C)s3)c(C(=O)O)c2)c1 [1-36]	≥ 6.30
COCCOc1ccc(-c2nc(Nc3ncc(-c4cc(C)cs4)cc3C(=O)O)sc2C2CCCC2)cc1 [1-38]	6.00 to 6.30
Cc1csc(-c2cnc(Nc3nc(-c4ccc(OC(F)F)cc4)c(C4CCCC4)s3)c(C(=O)O)c2)c1 [1-39]	≥ 6.30
CC(C)Cc1sc(Nc2ncc(-c3cccs3)cc2C(=O)O)nc1-c1ccc(O)c(Cl)c1 [I-1, 2-((4-(3-chloro-4-hydroxyphenyl)-5-isobutylthiazol-2-yl)amino)-5-(thiophen-2-yl)nicotinic acid]	≥ 6.30
CNCCOc1ccc(-c2nc(Nc3ncc(-c4cccs4)cc3C(=O)O)sc2CC(C)C)cc1Cl [I-3, 2-((4-(3-chloro-4-(2-(methylamino)ethoxy)phenyl)-5-isobutylthiazol-2-yl)amino)-5-(thiophen-2-yl)nicotinic acid]	< 6.00
COc1c(Cl)cc(-c2nc(Nc3ncc(-c4cccs4)cc3C(=O)O)sc2CC(C)C)cc1Cl [I-4]	≥ 6.30
CC(C)Cc1sc(Nc2ncc(-c3cccs3)cc2C(=O)O)nc1-c1ccc(OCC(F)(F)F)cc1 [I-7]	≥ 6.30
CC(C)Cc1sc(Nc2ncc(-c3cccs3)cc2C(=O)O)nc1-c1ccc(OC2CC2)cc1 [I-8]	≥ 6.30
CC(C)Cc1sc(Nc2ncc(-c3cccs3)cc2C(=O)O)nc1-c1ccc(OC(F)(F)F)c(Cl)c1 [I-9]	≥ 6.30
CC(C)Cc1sc(Nc2ncc(-c3cccs3)cc2C(=O)O)nc1-c1ccc(OC(F)(F)F)c(F)c1 [I-10]	≥ 6.30
CCOc1ccc(-c2nc(Nc3ncc(-c4cccs4)cc3C(=O)O)sc2CC(C)C)cc1 [I-11]	≥ 6.30
COc1ccc(-c2nc(Nc3cc(-c4ccccc4)sc3C(=O)O)sc2CC(C)C)cc1 [I-12]	6.00 to 6.30
CC(C)Cc1sc(Nc2ncc(-c3cccs3)cc2C(=O)O)nc1-c1ccc(O)cc1 [I-13]	< 6.00
CC(C)Cc1sc(Nc2cc(-c3ccccc3)sc2C(=O)O)nc1-c1ccc(OC2CC2)cc1 [I-14]	6.00 to 6.30
CC(C)Cc1sc(Nc2ncc(-c3cccs3)cc2C(=O)O)nc1-c1ccc(OC(F)F)cc1 [I-15]	6.00 to 6.30
COCCOc1ccc(-c2nc(Nc3ncc(-c4cccs4)cc3C(=O)O)sc2CC(C)C)cc1 [I-16]	≥ 6.30
CC(C)Cc1sc(Nc2ncc(-c3cccs3)cc2C(=O)O)nc1-c1ccc(OCC(N)=O)cc1 [I-17, 2-((4-(4-(2-amino-2-oxoethoxy)phenyl)-5-isobutylthiazol-2-yl)amino)-5-(thiophen-2-yl)nicotinic acid]	≥ 6.30
COc1ccc(-c2nc(Nc3ncc(-c4cccs4)cc3C(=O)O)sc2C2CC2)cc1 [I-18]	6.00 to 6.30
O=C(O)c1cc(-c2cccs2)cnc1Nc1nc(-c2ccc(OC3CC3)cc2)c(C2CC2)s1 [I-19]	6.00 to 6.30

Compound	pIC50
COCCOc1ccc(-c2nc(Nc3cc(-c4ccccc4)sc3C(=O)O)sc2C2CC2)cc1 [I-20]	6.00 to 6.30
COc1ccc(-c2nc(Nc3cc(-c4ccccc4)sc3C(=O)O)sc2C2CC2)cc1 [I-21]	6.00 to 6.30
COCCOc1ccc(-c2nc(Nc3ncc(-c4cccs4)cc3C(=O)O)sc2C2CC2)cc1 [I-22]	6.00 to 6.30
COCCOc1ccc(-c2nc(Nc3cc(-c4ccccc4)sc3C(=O)O)sc2CC(C)C)cc1 [I-23]	6.00 to 6.30
O=C(O)c1sc(-c2ccccc2)cc1Nc1nc(-c2ccc(O)cc2)c(C2CC2)s1 [I-24]	< 6.00
COc1ccc(-c2nc(Nc3cc(-c4ccccc4)sc3C(=O)O)sc2C2CC2)c(F)c1 [I-25]	6.00 to 6.30
COCCOc1ccc(-c2nc(Nc3ncc(-c4cccs4)cc3C(=O)O)sc2C2CC2)c(F)c1 [I-26]	< 6.00
COc1ccc(-c2nc(Nc3ncc(-c4cccs4)cc3C(=O)O)sc2C2CC2)c(F)c1 [I-27]	6.00 to 6.30
COc1ccc(-c2nc(Nc3ncc(-c4cccs4)cc3C(=O)O)sc2C2CC2)cc1F [I-28]	6.00 to 6.30
COCCOc1ccc(-c2nc(Nc3ncc(-c4cccs4)cc3C(=O)O)sc2C2CC2)cc1F [I-29]	6.00 to 6.30
COCCOc1ccc(-c2nc(Nc3ncc(-c4cccs4)cc3C(=O)O)sc2C(C)C)cc1F [I-31]	6.00 to 6.30
COCCOc1ccc(-c2nc(Nc3ncc(-c4cccs4)cc3C(=O)O)sc2C2CCCC2)cc1F [I-32]	6.00 to 6.30
Cc1ccc(-c2cnc(Nc3nc(-c4ccc(OC(F)F)cc4)c(CC(C)C)s3)c(C(=O)O)c2)s1 [I-33]	< 6.00
COCCOc1ccc(-c2nc(Nc3ncc(-c4ccc(C)s4)cc3C(=O)O)sc2CC(C)C)cc1 [I-34]	≥ 6.30
COCCOc1ccc(-c2nc(Nc3ncc(-c4ccc(C)s4)cc3C(=O)O)sc2C2CCCC2)cc1 [I-37]	≥ 6.30
Cc1ccc(-c2cnc(Nc3nc(-c4ccc(OC(F)F)cc4)c(C4CCCC4)s3)c(C(=O)O)c2)s1 [I-40]	≥ 6.30
COCCOc1ccc(-c2nc(Nc3ncc(-c4ccc(C)s4)cc3C(=O)O)sc2CC(C)C)cc1F [I-41]	≥ 6.30
COCCOc1ccc(-c2nc(Nc3ncc(-c4cc(C)cs4)cc3C(=O)O)sc2CC(C)C)cc1F [I-42]	≥ 6.30
COCCOc1ccc(-c2nc(Nc3ncc(-c4ccc(C)s4)cc3C(=O)O)sc2CC(C)C)cc1Cl [I-43]	≥ 6.30
COCCOc1ccc(-c2nc(Nc3ncc(-c4cc(C)cs4)cc3C(=O)O)sc2CC(C)C)cc1Cl [I-44]	≥ 6.30

Compound	pIC50
COCCOc1ccc(-c2nc(Nc3ncc(-c4cccs4)cc3C(=O)O)sc2CCC(C)C)cc1Cl [I-45]	≥ 6.30
COCCOc1ccc(-c2nc(Nc3ncc(-c4cccs4)cc3C(=O)O)sc2CCC(C)C)cc1F [I-46]	≥ 6.30
COCCCOc1ccc(-c2nc(Nc3ncc(-c4cccs4)cc3C(=O)O)sc2CC(C)C)cc1F [I-47]	≥ 6.30
COCCCOc1ccc(-c2nc(Nc3ncc(-c4cccs4)cc3C(=O)O)sc2CC(C)C)cc1Cl [I-48]	≥ 6.30
CCCc1sc(Nc2ncc(-c3cccs3)cc2C(=O)O)nc1-c1ccc(OCCOC)c(F)c1 [I-49]	6.00 to 6.30
COCCOc1ccc(-c2nc(Nc3ncc(-c4cccs4)cc3C(=O)O)sc2CCOC)cc1F [I-50]	6.00 to 6.30
COCCOc1ccc(-c2nc(Nc3ncc(-c4nccs4)cc3C(=O)O)sc2CC(C)C)cc1F [I-51]	≥ 6.30
COCCOc1ccc(-c2nc(Nc3ncc(-c4cccc(F)c4)cc3C(=O)O)sc2CC(C)C)cc1F [I-52]	≥ 6.30
COCCOc1ccc(-c2nc(Nc3ncc(-c4cccs4)cc3C(=O)OC)sc2CC(C)C)cc1F [I-53, methyl 2-((4-(3-fluoro-4-(2-methoxyethoxy)phenyl)-5-isobutylthiazol-2-yl)amino)-5-(thiophen-2-yl)nicotinate]	< 6.00
COCCOc1ccc(-c2nc(Nc3ncc(-c4cccs4)nc3C(=O)O)sc2CC(C)C)cc1F [I-54]	≥ 6.30
COCCOc1ccc(-c2nc(Nc3ncc(-c4ccsc4)cc3C(=O)O)sc2CC(C)C)cc1F [I-55]	6.00 to 6.30
COCCOc1ccc(-c2nc(Nc3ncc(-c4ccco4)cc3C(=O)O)sc2CC(C)C)cc1F [I-57]	6.00 to 6.30
COCCOc1ccc(-c2nc(Nc3ncc(-c4cccs4)cc3C(=O)O)sc2CC(C)C)cc1C(F)(F)F [I-58]	≥ 6.30
COCCOc1cc(-c2nc(Nc3ncc(-c4cccs4)cc3C(=O)O)sc2CC(C)C)ccc1F [I-59]	6.00 to 6.30
COc1ccc(-c2nc(Nc3ncc(-c4cccs4)nc3C(=O)O)sc2CC(C)C)cc1F [I-60, 3-((4-(3-fluoro-4-methoxyphenyl)-5-isobutylthiazol-2-yl)amino)-6-(thiophen-2-yl)pyrazine-2-carboxylic acid]	≥ 6.30
COc1ccc(-c2nc(Nc3ncc(-c4cccs4)nc3C(=O)O)sc2CCC(C)C)cc1Cl [I-61]	≥ 6.30
COc1ccc(-c2nc(Nc3ncc(-c4cccs4)nc3C(=O)O)sc2CCC(C)C)cc1F [I-62]	≥ 6.30
COCCOc1ccc(-c2nc(Nc3ccc(-c4cccs4)cc3C(=O)O)sc2CC(C)C)cc1F [I-64]	≥ 6.30
